The results in this text go back to patent EP0982318A2, “Enchanced phosphorylation of P53 by ATM in response to DNA damage” (RAMOT UNIVERSITY AUTHORITY FOR APPLIED RESEARCH & …, priority 1998, dated 2000).

Like-named read-outs stand apart in the source and are kept apart here.

Experiment [1] has as its system ATM. In words: Kinase activity of ATM immunoprecipitated from cells treated with NCS. Type of experiment: cell-based, human. Here is the method: (§1) For these experiments, 5X10^6 cells were washed in ice-cold phosphate buffered saline and lysed in 700 µl of 10 mM Tris-HCl (pH 7.5), 150 mM NaCl, 0.2% dodecyl maltoside (Sigma), 5 mM EDTA, 50 mM NaF, 2 mM phenylmethylsulfonylfluoride, 100 µM NaVO4, 2 µg/ml aprotonin (lysis buffer). Freshly prepared cell lysates were incubated for 2 hours at 4°C on a rotator with 10 µl of hybridoma supernatants. Fifty µl of magnetic beads coated with anti-mouse IgG (Dynabeads M-450, DYNAL, Oslo, Norway) were added and the mixture was further rotated at 4°C for 2 hours. Immune complexes were collected using a magnetic stand (DYNAL) and washed 3 times with lysis buffer. For Western blotting analysis, 1/3 of this mixture was loaded on a polyacrylamide-SDS gel which was later blotted onto a nitrocellulose membrane (Nitrocell MFF, Pharmacia Biotech, San Francisco, CA) as previously described [ref 8]. Immune complexes were washed twice with kinase buffer (50 mM Hepes, pH 7.5, 150 mM NaCl, 4 mM MnCl2, 6 mM MgCl2, 10% v/v glycerol, 1 mM DTT, 100 µM NaVO4). […]
Kinase activity was assayed using the p53-N47 substrate. The histogram presents quantitation of the data from the top panel (B). […]
U: untreated cells. The curve presents quantitation of the data from the top panel.

The target in experiment [2] is T1, ATM (Homo sapiens, UniProt Q13315).
T1 construct: endogenous in cells; host or cells: cultured cells, lysed and immunoprecipitated with anti-ATM monoclonal antibody
In words: ATM immune complex protein kinase assay (inhibition by wortmannin). Type of experiment: biochemical. As for the experimental part: as §1, with “NaVO4). Two hundred ng - 1 µg substrate, 10 µCi [32P]ATP and ATP to final concentration of 5 µM were added, and the reaction mixtures were incubated at 30°C for 3-15 minutes.” for “NaVO4).”
ATM immune complexes were incubated with various concentrations of the drug and washed with the reaction buffer before kinase activity was measured. […]

T1 sequence (Q13315 whole entry): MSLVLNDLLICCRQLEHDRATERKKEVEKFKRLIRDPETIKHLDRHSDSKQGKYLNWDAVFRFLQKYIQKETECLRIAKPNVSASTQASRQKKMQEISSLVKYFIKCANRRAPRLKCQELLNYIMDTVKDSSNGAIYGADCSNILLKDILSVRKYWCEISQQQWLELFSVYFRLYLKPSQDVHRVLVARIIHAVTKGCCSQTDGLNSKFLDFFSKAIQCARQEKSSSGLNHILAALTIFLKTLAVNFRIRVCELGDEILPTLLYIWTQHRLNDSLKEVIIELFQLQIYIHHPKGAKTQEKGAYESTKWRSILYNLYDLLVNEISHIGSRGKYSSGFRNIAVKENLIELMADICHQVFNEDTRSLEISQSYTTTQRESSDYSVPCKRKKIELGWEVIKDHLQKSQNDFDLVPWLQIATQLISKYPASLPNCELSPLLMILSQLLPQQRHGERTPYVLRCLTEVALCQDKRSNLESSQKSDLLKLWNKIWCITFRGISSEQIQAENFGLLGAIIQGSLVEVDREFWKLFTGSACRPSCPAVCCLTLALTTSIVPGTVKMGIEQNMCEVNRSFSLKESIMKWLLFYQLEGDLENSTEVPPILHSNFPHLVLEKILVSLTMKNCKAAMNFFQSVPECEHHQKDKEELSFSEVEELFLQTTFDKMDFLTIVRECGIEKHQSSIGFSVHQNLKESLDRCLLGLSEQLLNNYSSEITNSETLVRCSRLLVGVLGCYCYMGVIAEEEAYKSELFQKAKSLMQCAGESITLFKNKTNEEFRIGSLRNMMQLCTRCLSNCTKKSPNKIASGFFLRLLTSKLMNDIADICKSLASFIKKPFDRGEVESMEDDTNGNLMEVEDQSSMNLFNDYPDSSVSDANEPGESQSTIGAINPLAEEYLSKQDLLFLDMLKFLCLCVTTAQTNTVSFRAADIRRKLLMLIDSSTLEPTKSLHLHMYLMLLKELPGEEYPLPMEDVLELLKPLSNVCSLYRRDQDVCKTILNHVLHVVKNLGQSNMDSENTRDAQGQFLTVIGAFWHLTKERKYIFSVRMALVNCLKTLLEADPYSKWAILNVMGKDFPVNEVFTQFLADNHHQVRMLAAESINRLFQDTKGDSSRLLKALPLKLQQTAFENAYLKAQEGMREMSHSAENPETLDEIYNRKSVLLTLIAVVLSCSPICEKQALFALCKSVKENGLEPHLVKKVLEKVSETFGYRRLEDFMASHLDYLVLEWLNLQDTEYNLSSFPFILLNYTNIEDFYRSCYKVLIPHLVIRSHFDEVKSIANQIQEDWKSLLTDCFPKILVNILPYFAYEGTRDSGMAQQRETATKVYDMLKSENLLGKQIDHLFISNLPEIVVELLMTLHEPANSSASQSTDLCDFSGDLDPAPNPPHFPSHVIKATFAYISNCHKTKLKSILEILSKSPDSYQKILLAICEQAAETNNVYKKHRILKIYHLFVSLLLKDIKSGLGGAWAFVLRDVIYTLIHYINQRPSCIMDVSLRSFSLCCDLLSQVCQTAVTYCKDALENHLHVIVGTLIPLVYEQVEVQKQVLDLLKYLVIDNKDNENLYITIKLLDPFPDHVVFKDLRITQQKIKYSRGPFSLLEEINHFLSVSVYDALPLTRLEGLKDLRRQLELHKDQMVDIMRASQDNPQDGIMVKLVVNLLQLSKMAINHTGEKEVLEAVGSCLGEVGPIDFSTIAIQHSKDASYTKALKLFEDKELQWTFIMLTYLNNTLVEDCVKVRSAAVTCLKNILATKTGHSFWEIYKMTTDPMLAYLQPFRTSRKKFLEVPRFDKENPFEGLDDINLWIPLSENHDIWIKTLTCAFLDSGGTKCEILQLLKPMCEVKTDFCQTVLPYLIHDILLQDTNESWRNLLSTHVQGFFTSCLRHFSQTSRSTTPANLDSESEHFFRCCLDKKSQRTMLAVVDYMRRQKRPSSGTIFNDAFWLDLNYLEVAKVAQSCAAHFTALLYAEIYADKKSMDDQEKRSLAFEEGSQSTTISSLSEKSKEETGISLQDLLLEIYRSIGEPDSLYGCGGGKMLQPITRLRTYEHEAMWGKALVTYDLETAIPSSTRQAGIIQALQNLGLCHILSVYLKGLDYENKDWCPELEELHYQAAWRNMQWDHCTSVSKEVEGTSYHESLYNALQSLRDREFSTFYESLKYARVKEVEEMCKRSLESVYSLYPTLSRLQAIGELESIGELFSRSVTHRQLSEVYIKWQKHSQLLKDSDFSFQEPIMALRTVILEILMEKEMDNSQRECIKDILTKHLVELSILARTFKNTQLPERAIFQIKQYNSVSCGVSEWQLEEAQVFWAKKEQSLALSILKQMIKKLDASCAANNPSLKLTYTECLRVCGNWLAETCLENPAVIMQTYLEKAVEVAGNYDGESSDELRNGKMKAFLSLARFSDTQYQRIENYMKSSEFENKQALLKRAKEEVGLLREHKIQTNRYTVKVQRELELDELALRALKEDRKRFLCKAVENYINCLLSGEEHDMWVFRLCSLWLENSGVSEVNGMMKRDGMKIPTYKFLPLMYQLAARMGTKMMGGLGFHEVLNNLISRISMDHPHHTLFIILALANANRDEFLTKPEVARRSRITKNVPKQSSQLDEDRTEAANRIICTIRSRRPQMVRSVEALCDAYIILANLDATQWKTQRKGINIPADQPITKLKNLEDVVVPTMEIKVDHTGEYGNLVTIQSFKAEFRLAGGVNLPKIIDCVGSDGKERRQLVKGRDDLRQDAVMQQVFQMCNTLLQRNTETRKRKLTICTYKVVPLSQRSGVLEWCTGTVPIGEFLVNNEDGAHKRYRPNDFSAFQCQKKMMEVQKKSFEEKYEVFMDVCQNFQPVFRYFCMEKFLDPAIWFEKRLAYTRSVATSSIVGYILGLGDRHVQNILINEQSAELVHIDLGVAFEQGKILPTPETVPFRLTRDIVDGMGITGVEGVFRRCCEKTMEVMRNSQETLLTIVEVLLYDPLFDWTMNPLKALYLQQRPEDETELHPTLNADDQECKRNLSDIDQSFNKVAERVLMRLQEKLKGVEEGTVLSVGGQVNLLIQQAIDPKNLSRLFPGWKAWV

With neocarzinostatin [NCS], in the experiment with ATM [1] (nine experiments, ATM immunoprecipitated from cells after NCS treatment, p53-N47 substrate), the “maximal enhancement of ATM's activity compared to its basal activity” value is reported as 4.4±0.8 fold. The “time of second enhancement of ATM's activity following treatment” value with ATM [1] (time course after NCS (50 ng/ml), Figure 3B) was “about 120 minutes”.
Take `COC[C@H]1OC(=O)c2coc3c2[C@@]1(C)C1=C(C3=O)[C@@H]2CCC(=O)[C@@]2(C)C[C@H]1OC(C)=O` [wortmannin]: the IC50 against ATM [2] was determined as 80 nM; at ATM [2] (ATM immune complexes exposed to wortmannin for 30 minutes and washed before kinase assay, PHAS-I as substrate, activity normalized to amount of ATM protein, read-out: IC50 (sensitivity of ATM-associated kinase activity to wortmannin)) it was 100 nM.

A word on the IC50: it is the concentration needed to halve the response being measured.
